Assay results from PMC10482975 (Nature Communications, 2023).
Positions count from the first letter of the chain named. Where two headings read alike, the source gives them in different places.

Legend:
[1] = test system: M4 mAChR knockout (KO) mice / M1 mAChR KO mice; settings: cited from earlier work
M4 mAChR Y92A = target: T1, M4 mAChR Y92A (Homo sapiens, UniProt P08173, Y92A); test: [3H]-NMS radioligand dissociation binding, M4 mAChR Y92A; design: [3H]-NMS binding remaining vs Total Binding, MEAN: unit not given here; settings: for [3H]-NMS binding remaining vs Total Binding, MEAN: M4 Y92A mAChR
T1 construct: expressed in transfected cells
T1 sequence (P08173 1-479 Y92A): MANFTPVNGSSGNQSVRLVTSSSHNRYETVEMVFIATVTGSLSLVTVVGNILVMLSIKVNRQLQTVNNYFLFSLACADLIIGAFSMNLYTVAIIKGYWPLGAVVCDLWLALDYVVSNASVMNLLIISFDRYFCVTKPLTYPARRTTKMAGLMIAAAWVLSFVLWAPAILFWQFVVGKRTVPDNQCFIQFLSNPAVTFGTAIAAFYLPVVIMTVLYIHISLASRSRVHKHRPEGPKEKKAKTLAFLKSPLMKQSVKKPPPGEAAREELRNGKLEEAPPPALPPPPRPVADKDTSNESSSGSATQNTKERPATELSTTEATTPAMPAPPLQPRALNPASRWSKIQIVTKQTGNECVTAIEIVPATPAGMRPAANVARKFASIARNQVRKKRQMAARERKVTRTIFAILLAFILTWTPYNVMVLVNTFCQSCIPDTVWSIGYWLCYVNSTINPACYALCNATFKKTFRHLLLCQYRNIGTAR
Experimental: (§1) Flp-In Chinese hamster ovary (CHO) (Thermo Fisher Scientific) cells stably expressing mAChR WTs or mutant constructs were cultured in Dulbecco’s modified Eagle’s medium (DMEM, Invitrogen) containing 5% foetal bovine serum (FBS; ThermoTrace) and […] of hygromycin (Roche) in a humidified incubator (37 °C, 5% CO2). Upon reaching confluence, media was removed, cells were washed with phosphate buffered saline (PBS) and harvested from tissue culture flasks using versene (PBS with 0.2 g EDTA). Cells were then pelleted through centrifugation at 350 × g for three minutes followed by resuspension in DMEM + 5% FBS. Cells were then either plated for an assay or reseeded into a tissue culture flask.

M4 mAChR Y89A = target: T2, M4 mAChR Y89A (Homo sapiens, UniProt P08173, Y89A); test: [3H]-NMS radioligand dissociation binding, M4 mAChR Y89A; design: [3H]-NMS binding remaining vs Total Binding, MEAN: unit not given here; settings: for [3H]-NMS binding remaining vs Total Binding, MEAN: M4 Y89A mAChR; for effect on [3H]-NMS dissociation (in words): M4 mAChR Y89A mutant
T2 construct: expressed in transfected cells
T2 sequence (P08173 1-479 Y89A): T1 sequence (P08173 1-479 Y92A) with Y89A, A92Y
Experimental: as §1

M4 mAChR W435A = target: T3, M4 mAChR W435A (Homo sapiens, UniProt P08173, W435A); test: [3H]-NMS radioligand dissociation binding, M4 mAChR W435A; design: [3H]-NMS binding remaining vs Total Binding, MEAN: unit not given here; settings: for [3H]-NMS binding remaining vs Total Binding, MEAN: M4 W435A mAChR
T3 construct: expressed in transfected cells
T3 sequence (P08173 1-479 W435A): T1 sequence (P08173 1-479 Y92A) with A92Y, W435A
Experimental: as §1

[2] = + 10uM LY2033 (Allosteric Ligand), Time 0 min (Total Binding)
[3] = + 10uM LY2033 (Allosteric Ligand), Time 30 min
[4] = + 10uM LY2033 (Allosteric Ligand), Time 60 min
[5] = + 10uM LY2033 (Allosteric Ligand), Time 90 min
[6] = + 10uM LY2033 (Allosteric Ligand), Time 120 min
[7] = + 10uM LY2033 (Allosteric Ligand), Time 180 min
[8] = + 10uM LY2033 (Allosteric Ligand), Time 300 min

CCCCCCOc1nsnc1C1=CCCN(C)C1 [xanomeline]
antipsychotic efficacy ([1]; M1 mAChR KO mice): partially reduced
antipsychotic efficacy ([1]; M4 mAChR knockout (KO) mice): completely abolished
[3H]-NMS binding remaining vs Total Binding, MEAN (M4 mAChR Y92A; +100uM Xano, Time 30 min): 84.6188
[3H]-NMS binding remaining vs Total Binding, MEAN (M4 mAChR Y92A; +100uM Xano, Time 60 min): 76.9087
[3H]-NMS binding remaining vs Total Binding, MEAN (M4 mAChR Y92A; +100uM Xano, Time 90 min): 63.0845
[3H]-NMS binding remaining vs Total Binding, MEAN (M4 mAChR Y92A; +100uM Xano, Time 120 min): 54.6505
[3H]-NMS binding remaining vs Total Binding, MEAN (M4 mAChR Y92A; +100uM Xano, Time 300 min): 15.7486
effect on [3H]-NMS dissociation (in words) (M4 mAChR Y92A; M4 mAChR Y92A mutant): loss in xanomeline modulation
[3H]-NMS binding remaining vs Total Binding, MEAN (M4 mAChR Y89A; +100uM Xano, Time 30 min): 98.3579
[3H]-NMS binding remaining vs Total Binding, MEAN (M4 mAChR Y89A; +100uM Xano, Time 60 min): 102.694
[3H]-NMS binding remaining vs Total Binding, MEAN (M4 mAChR Y89A; +100uM Xano, Time 90 min): 104.852
[3H]-NMS binding remaining vs Total Binding, MEAN (M4 mAChR Y89A; +100uM Xano, Time 120 min): 120.479
[3H]-NMS binding remaining vs Total Binding, MEAN (M4 mAChR Y89A; +100uM Xano, Time 300 min): 77.2149
effect on [3H]-NMS dissociation (in words) (M4 mAChR Y89A): improved ability
[3H]-NMS binding remaining vs Total Binding, MEAN (M4 mAChR W435A; +100uM Xano, Time 30 min): 96.9648
[3H]-NMS binding remaining vs Total Binding, MEAN (M4 mAChR W435A; +100uM Xano, Time 60 min): 87.005
[3H]-NMS binding remaining vs Total Binding, MEAN (M4 mAChR W435A; +100uM Xano, Time 90 min): 77.1921
[3H]-NMS binding remaining vs Total Binding, MEAN (M4 mAChR W435A; +100uM Xano, Time 120 min): 74.9315
[3H]-NMS binding remaining vs Total Binding, MEAN (M4 mAChR W435A; +100uM Xano, Time 180 min): 64.2361
[3H]-NMS binding remaining vs Total Binding, MEAN (M4 mAChR W435A; +100uM Xano, Time 300 min): 31.9462
effect on [3H]-NMS dissociation (in words) (M4 mAChR W435A; M4 mAChR W435A mutant): loss in xanomeline modulation

COc1nc2sc(C(=O)NC3CC3)c(N)c2c(C)c1Cl [LY2033298]
[3H]-NMS binding remaining vs Total Binding, MEAN (M4 mAChR Y92A; [2]): 100
[3H]-NMS binding remaining vs Total Binding, MEAN (M4 mAChR Y92A; [3]): 108.824
[3H]-NMS binding remaining vs Total Binding, MEAN (M4 mAChR Y92A; [4]): 96.2598
[3H]-NMS binding remaining vs Total Binding, MEAN (M4 mAChR Y92A; [5]): 94.6146
[3H]-NMS binding remaining vs Total Binding, MEAN (M4 mAChR Y92A; [6]): 83.2371
[3H]-NMS binding remaining vs Total Binding, MEAN (M4 mAChR Y92A; [7]): 74.311
[3H]-NMS binding remaining vs Total Binding, MEAN (M4 mAChR Y92A; [8]): 49.3255
[3H]-NMS binding remaining vs Total Binding, MEAN (M4 mAChR Y89A; [2]): 100.077
[3H]-NMS binding remaining vs Total Binding, MEAN (M4 mAChR Y89A; [3]): 111.396
[3H]-NMS binding remaining vs Total Binding, MEAN (M4 mAChR Y89A; [4]): 121.467
[3H]-NMS binding remaining vs Total Binding, MEAN (M4 mAChR Y89A; [5]): 123.726
[3H]-NMS binding remaining vs Total Binding, MEAN (M4 mAChR Y89A; [6]): 111.892
[3H]-NMS binding remaining vs Total Binding, MEAN (M4 mAChR Y89A; [7]): 116.814
[3H]-NMS binding remaining vs Total Binding, MEAN (M4 mAChR Y89A; [8]): 102.533
effect on [3H]-NMS dissociation (in words) (M4 mAChR Y89A): the same effect was observed
[3H]-NMS binding remaining vs Total Binding, MEAN (M4 mAChR W435A; [2]): 100
[3H]-NMS binding remaining vs Total Binding, MEAN (M4 mAChR W435A; [3]): 87.6204
[3H]-NMS binding remaining vs Total Binding, MEAN (M4 mAChR W435A; [4]): 83.5904
[3H]-NMS binding remaining vs Total Binding, MEAN (M4 mAChR W435A; [5]): 79.4133
[3H]-NMS binding remaining vs Total Binding, MEAN (M4 mAChR W435A; [6]): 78.9331
[3H]-NMS binding remaining vs Total Binding, MEAN (M4 mAChR W435A; [7]): 67.1451
[3H]-NMS binding remaining vs Total Binding, MEAN (M4 mAChR W435A; [8]): 50.6666
